Paper PMC11513842, “Development of an orally bioavailable CDK12/13 degrader and induction of synthetic lethality with AKT pathway inhibition” (Cell Reports Medicine, 2024)
Where two headings read alike, the source gives them in different places.

Experiments:
[1] = Body weight of treated animals in tumor models; assay type: in vivo, mouse; conditions: all tumor models (castrated VCaP, WA74 PDX, PC310 PDX), i.v. 30 mg/kg
Experimental: Six-week-old male CB17SCID mice obtained from Charles River (Stock # 236), were used to establish subcutaneous tumors on both dorsal flanks. Tumor dimensions were measured biweekly using digital calipers, applying the formula (π/6) (L × W^2), where L and W represent tumor length and width, respectively. At the study conclusion, mice were euthanized, and tumors were excised and weighed. The University of Michigan Institutional Animal Care and Use Committee (IACUC) approved all in vivo studies.
For the VCaP castration-resistant tumor model, 3×10^6 VCaP cells were subcutaneously injected into both dorsal flanks of mice using a serum-free medium mixed with 50% Matrigel (BD Biosciences). Upon tumors reaching palpable size (∼200 mm^3), animals underwent castration. When tumors regrew to their pre-castration size, mice were randomized for treatment with 30 mg/kg YJ9069 or vehicle via intravenous injection or 100 mg/kg YJ1206 or vehicle, with or without 15 mg/kg uprosertib by oral gavage. Treatments were administered three times weekly for three to four weeks.
For the 22Rv1 castration-resistant tumor model, mice underwent castration and then 12 days of recovery. Subsequently, 1 × 10^6 22Rv1 cells were subcutaneously injected into both dorsal flanks using a serum-free medium with 50% Matrigel (BD Biosciences). […]

CDK12 and CDK13 = conditions: VCaP cells
Experimental: After treatment of varying conditions, cell lysates were prepared using RIPA buffer (ThermoFisher Scientific) supplemented with cOmplete protease inhibitor cocktail tablets (Sigma-Aldrich). The Pierce BCA Protein Assay Kit ([…]) was used to determine the protein concentrations. Proteins with an equal amount from each sample were loaded on NuPAGE 3–8% Tris-Acetate or 4–12% Bis-Tris protein gels (ThermoFisher Scientific) and subsequently transferred to membranes, which were blocked using 5% nonfat milk. Following blocking at room temperature for 1 h, the membrane was further incubated with varying primary antibodies at 4°C overnight. HRP-conjugated secondary antibodies were used for detection, and membrane imaging was conducted using an Odyssey Fc Imager (LI-COR Biosciences).

[2] = Toxicity study in CD-1 immune-competent mice; assay type: in vivo, mouse
prostate cancer cells = experiment: Cell viability, prostate cancer cells; assay type: cell-based; conditions: Homo sapiens, Figure 3A
Experimental: (§1) Cells were seeded in 96-well plates and incubated at 37°C with 5% CO2 overnight. A series of compound dilutions were added into the cells. After 5 days incubation, cell proliferation was tested using the CellTiter-Glo assay (Promega) according to the manufacturer’s protocol. Luminescence was measured using the Infinite M1000 Pro plate reader (Tecan). Data analysis was conducted using GraphPad Prism software.

VCaP cells = experiment: Comet assay; assay type: cell-based, human; conditions: 100 nM, 12 h
Experimental: VCaP cells were seeded in 6-well plates one day prior to treatment. […] After 12 h incubation, the cells were trypsinized and resuspended at a concentration of 1 × 10^5 cells/mL in ice-cold PBS. The OxiSelect Comet Assay Kit (Cell Biolabs, STA-351) was used to assess DNA damage. Following the manufacturer’s protocol, cells were combined with pre-heated comet agarose at a 1:10 ratio, mixed thoroughly, and then transferred onto slides. The slides were incubated horizontally in the dark at 4°C for 20 min. Afterward, they were immersed in pre-chilled lysis buffer for 40 min at 4°C in the dark, followed by a 30-min incubation in pre-chilled alkaline solution at 4°C in the dark. Electrophoresis was then performed using alkaline solution at 30 V for 20 min. After electrophoresis, the slides were rinsed three times with pre-chilled deionized water, following with 70% ethanol for 5 min and completely dried at 37°C for 30 min. Subsequently, 100 μL of diluted Vista Green DNA dye was applied to each well. After 15 min incubation at room temperature, the comets were observed using a fluorescence microscope and quantified using ImageJ. The quantification figure was generated using GraphPad Prism software.

PC310 organoids = experiment: PC310 organoid viability dose-response; assay type: cell-based; conditions: Homo sapiens, Figure S1J
[3] = test system: benign immortalized cell lines (PrEC, WPMY-1, BPH-1, RWPE1, PNT2, MCF10A, MCF12A); experiment: Cell viability, benign immortalized cell lines; assay type: cell-based; conditions: Homo sapiens, 120 h; most benign immortalized cell lines, 5 days; read-out: half-maximal inhibitory concentration [IC50]
Experimental: as §1

[4] = Pharmacokinetic profile in CD-1 mice; assay type: in vivo; conditions: plasma, CD-1 mouse; for AUC: read-out: AUC(0-⊠)

With `O=C1CCC(N2C(=O)c3cccc(OCC(=O)N4CCN(c5ccc(N(C(=O)NCc6ccccc6)C6CCC(Nc7ncc8ccccc8n7)CC6)cc5)CC4)c3C2=O)C(=O)N1` (centres unmarked) [YJ9069] the “body weight loss in the treated animals” value [1] was “less than 20%”, the “CDK12/13 degradation (immunoblot)” value (CDK12 and CDK13) was “enhanced degradation of both CDK12 and CDK13 proteins compared to 7f” and the toxicity ([2]; CD-1 female mice) was “no significant toxicity was observed”. The “genitourinary (GU) weight” value ([2]; CD-1 male mice) was “decrease in genitourinary (GU) weight”, the “serum chemistry and complete blood analyses” value ([2]; CD-1 male mice) was “no significant changes” and the body weight loss ([2]; CD-1 male mice, doses of 30 mg/kg and 50 mg/kg, 3x/week) was 10%. For the same molecule, the toxicity in vivo ([2]; administered intravenously) was “mild to intermediate toxicity”, the IC50 (prostate cancer cells) was < 0.2 µM and the “DNA damage (tail moment)” value (VCaP cells) was “significant increase in the tail moment”. For the same molecule, the IC50 (PC310 organoids) was 0.107 µM, the IC50 [3] was > 10 µM and the AUC(0-t) ([4]; iv, i.v. 2.5 mg/kg) was 3150 ng·h/mL. It also gave a Cmax ([4]; iv, i.v. 2.5 mg/kg) of 3650 ng/mL, a Tmax ([4]; iv, i.v. 2.5 mg/kg) of 0.08 h and a clearance ([4]; iv, i.v. 2.5 mg/kg) of 13.1 mL/min/kg. For the same molecule, the half-life ([4]; iv, i.v. 2.5 mg/kg) was 5.23 h, the AUC ([4]; iv, i.v. 2.5 mg/kg) was 3220 ng·h/mL and the bioavailability ([4]; oral, p.o. 10 mg/kg vs i.v. 2.5 mg/kg, read-out: F% (oral bioavailability)) was 1.02%. The AUC(0-t) ([4]; po, p.o. 10 mg/kg) was 128 ng·h/mL, the Cmax ([4]; po, p.o. 10 mg/kg) was 55 ng/mL and the Tmax ([4]; po, p.o. 10 mg/kg) was 0.25 h. For the same molecule, the half-life ([4]; po, p.o. 10 mg/kg) was 2.44 h and the AUC ([4]; po, p.o. 10 mg/kg) was 145 ng·h/mL.
